Reference: article PMC4143292, “An Enzymatic Platform for the Synthesis of Isoprenoid Precursors” (PLoS ONE, 2014)

Biological target: T1, DPM-DC (diphosphomevalonate decarboxylase) (Streptococcus pneumoniae, UniProt A0A0H2UNP0)
T1 construct: gene mvaD; N-terminal His9-GST tag removed with PreScission protease; expressed in E. coli BL21(DE3)
T1 sequence (A0A0H2UNP0 1-317): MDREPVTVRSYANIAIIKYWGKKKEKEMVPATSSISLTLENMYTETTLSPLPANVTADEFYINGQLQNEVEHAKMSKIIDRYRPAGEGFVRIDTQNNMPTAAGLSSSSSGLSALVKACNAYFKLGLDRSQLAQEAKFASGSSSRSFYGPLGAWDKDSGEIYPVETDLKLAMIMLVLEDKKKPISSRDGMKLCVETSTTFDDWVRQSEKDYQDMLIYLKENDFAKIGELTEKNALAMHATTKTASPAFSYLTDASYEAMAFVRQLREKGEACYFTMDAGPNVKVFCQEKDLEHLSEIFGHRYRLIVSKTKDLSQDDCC
Test: PK/LDH-coupled NADH oxidation
Format: biochemical
Settings: ATP 2.0 mM, MgCl2 1.0 mM + nucleotide, KCl 50 mM, Hepes pH 8.0, 25 C

In the case of `C[C@@](O)(CCOP(=O)(O)OP(=O)(O)O)CC(=O)O` [DPM], the “PK/LDH-coupled NADH oxidation” value was “DPM formation was assayed by adding an aliquot the DPM-synthesis reaction into a DPM decarboxylase”.
